{
  "source": "paper PMC10382584",
  "about": "“Macrocyclization of linear molecules by deep learning to facilitate macrocyclic drug candidates discovery” (Nature Communications, 2023)",
  "key": {"[1]": {"test_system": "JAK2-STAT signaling pathways in HEL cells", "experiment": "Western blot analysis of JAK2-STAT signaling in HEL cells", "type": "cell-based, human", "conditions": "0.3-10 μM, 0.5 h", "method": "HEL cells were added into six-well plates (2 × 10^6 cells/well) and then put into the incubator (37 °C, 5% CO2). After 24 h, the tested compounds were diluted in RPMI-1640 medium (final DMSO concentration = 0.1%) with different concentrations (0 μM, 0.3 μM, 1 μM, 3 μM, and 10 μM) was added separately into the wells, and incubated for another 0.5 h, then cells were collected and lysed. Proteins from each sample were isolated by SDS-PAGE and transferred to PVDF membrane. The membranes were blocked in 5% milk (TBST) for 1 h at room temperature, and subsequently incubated with the indicated primary antibody in blocking buffer overnight at 4 °C. Primary antibodies were used as follows: p-Y1007/8-JAK2 (#3771, CST, 1:1000), p-Y221-JAK2 (#11150, SAB, 1:500), p-Y705-STAT3 (#11045, SAB, 1:1000), p-Y694-STAT5 (#13386, SAB, 1:2000), STAT3 (10253-2-AP, Proteintech, 1:4000), STAT5 (12071-1-AP, Proteintech, 1:4000), JAK2 (E-AB-70193, Elabscience, 1:2000) and β-Actin (E-AB-20034, Elabscience, 1:10000). Then the membranes were washed with TBST (3 × 5 min), incubated with HRP-conjugated secondary antibody for 1 h at room temperature, washed again, and then exposed by chemiluminescence method using the enhanced ECL immunoblotting system (Tanon, Shanghai, China). All the experiments were repeated in triplicate. Blot bands were quantified by densitometry using Image J software v1.51."}, "SET-2 cells": {"test_system": "SET-2 cells", "experiment": "Cell proliferation assay (CCK-8), SET-2 cells", "type": "cell-based, human"}, "DSS-induced colitis mice": {"test_system": "DSS-induced colitis mice", "experiment": "In vivo efficacy study, DSS-induced colitis model", "design": "species or system male BALB/c mice", "conditions": "for DAI score (Fig. 6b) / Body weight (Fig. 6a): Compound 3 5 mg/kg, individual mice", "description": "Model mice were divided into four groups and eight mice were included in each group on day 8. […] Meanwhile, solvent was given intragastrically to the control group and model group. On day 15, the mice were sacrificed, and the length and weight of each colon were measured.\nBody weight, the stool consistency, and the presence of blood in feces were recorded daily in the morning. […] The maximum score was 9, which was the sum of the scores. About 1-cm colon tissue, which is 0.5 cm away from the anal margin, was collected, and the ileocecal area was used for histopathological examination. After H&E staining, the tissues were scored under single-blind conditions to evaluate the levels of inflammation and tissue damage in the colons following the criteria proposed by ref. [62]. Statistical analyses were performed using SPSS v24.0."}, "[2]": {"conditions": "3.5% DSS colitis mice, compound 3 5 mg/kg, Fedratinib 10 mg/kg, intragastric, day 8 to day 14"}},
  "note": "“And” between values parts separate entries of the source, which are not always exact repeats. Equal entries are not always repeated. Where two headings read alike, the source gives them in different places.",
  "data": [
    {"smiles": "Cc1cnc2nc1Nc1cccc(c1)COCC=CCOCc1cc(ccc1OCCN1CCCC1)N2", "note": "[Compound 3]", "values": [
      {"measurement": "activation of downstream signaling molecule STAT3 and STAT5", "setting": "[1]", "value": "significantly inhibited"},
      {"measurement": "phosphorylation of JAK2 at Y1007/8 site", "setting": "[1]", "value": "increased"},
      {"measurement": "phosphorylation of JAK2 at Y221 site", "setting": "[1]; dose-dependent", "value": "efficiently blocked"},
      {"measurement": "Inhibition (%)", "setting": "SET-2 cells; SET-2 cell lines, C 0.0977 μM, single wells of replicate 1 and replicate 2", "value": "-27.9889% and -18.4466% and -28.7656% and 0.261% and 11.375% and 10.333%"},
      {"measurement": "Inhibition (%)", "setting": "SET-2 cells; SET-2 cell lines, C 0.1953 μM, single wells of replicate 1 and replicate 2", "value": "-32.7601% and -23.4397% and -24.3273% and 16.816% and 17.164% and 5.470%"},
      {"measurement": "Inhibition (%)", "setting": "SET-2 cells; SET-2 cell lines, C 0.3906 μM, single wells of replicate 1 and replicate 2", "value": "-24.5492% and -19.4452% and -33.2039% and 12.880% and 13.806% and 4.892%"},
      {"measurement": "Inhibition (%)", "setting": "SET-2 cells; SET-2 cell lines, C 0.7813 μM, single wells of replicate 1 and replicate 2", "value": "-42.4133% and -41.7476% and -46.4078% and 9.291% and 13.806% and 8.828%"},
      {"measurement": "Inhibition (%)", "setting": "SET-2 cells; SET-2 cell lines, C 1.5625 μM, single wells of replicate 1 and replicate 2", "value": "-43.4119% and -41.8585% and -40.6380% and 14.617% and 26.541% and 23.994%"},
      {"measurement": "Inhibition (%)", "setting": "SET-2 cells; SET-2 cell lines, C 3.1250 μM, single wells of replicate 1 and replicate 2", "value": "-19.0014% and -10.7906% and -7.5728% and 27.931% and 19.711% and 22.952%"},
      {"measurement": "Inhibition (%)", "setting": "SET-2 cells; SET-2 cell lines, 6.2500 μM, single wells, replicates 1 and 2, 6.25 µM", "value": "17.1706% and 27.3786% and 29.5978% and 31.635% and 25.499% and 11.259%"},
      {"measurement": "Inhibition (%)", "setting": "SET-2 cells; SET-2 cell lines, 12.5000 μM, single wells, replicates 1 and 2, 12.5 µM", "value": "59.6671% and 60.0000% and 61.2205% and 43.097% and 40.782% and 34.993%"},
      {"measurement": "IC50", "setting": "SET-2 cells; SET-2 cell lines, mean of 2 replicates, read-out: IC50/μM mean, cellular antiproliferative activity", "value": 11.1, "unit": "µM"},
      {"measurement": "IC50", "setting": "SET-2 cells; SET-2 cell lines, mean ± sd of 2 replicates, read-out: IC50/μM mean ± sd, cellular antiproliferative activity", "value": "11.1 ± 0.13", "unit": "µM"},
      {"measurement": "IC50", "setting": "SET-2 cells; SET-2 cell lines, single-replicate fits, read-out: IC50/μM (individual replicates), cellular antiproliferative activity", "value": "11 µM and 11.2 µM"},
      {"measurement": "IC50", "setting": "SET-2 cells; SET-2 cells, 72 h, mean ± SD, read-out: Cellular Antiproliferative Activity (IC50) SET-2", "value": "11.1 ± 0.13", "unit": "µM"},
      {"measurement": "histological scores (H&E, Ameho criteria)", "setting": "DSS-induced colitis mice; 3.5% DSS colitis mice, compound 3 5 mg/kg, Fedratinib 10 mg/kg", "value": "lower"},
      {"measurement": "body weight change", "setting": "DSS-induced colitis mice; [2]", "value": "alleviate the decrease of body weight"},
      {"measurement": "disease activity index (DAI) scores", "setting": "DSS-induced colitis mice; [2]", "value": "significantly decreased"},
      {"measurement": "ratio of colon weight to length", "setting": "DSS-induced colitis mice; 3.5% DSS colitis mice, compound 3 5 mg/kg, Fedratinib 10 mg/kg, compared to the model group", "value": "decreased"},
      {"measurement": "DAI score (Fig. 6b)", "setting": "DSS-induced colitis mice; day 0", "value": 0},
      {"measurement": "Body weight (Fig. 6a)", "setting": "DSS-induced colitis mice; day 0, 5 mg/kg", "value": "21.4 and 20.3 and 22.6 and 21.9 (2×) and 23.4 and 23.9 and 21.5"},
      {"measurement": "DAI score (Fig. 6b)", "setting": "DSS-induced colitis mice; day 1, 5 mg/kg", "value": "0 (7×) and 1"},
      {"measurement": "Body weight (Fig. 6a)", "setting": "DSS-induced colitis mice; day 1, 5 mg/kg, in g (unit assumed)", "value": "22.2 and 21 and 23.1 and 22.4 and 23.5 and 21.4 and 24.6 and 22.7"},
      {"measurement": "DAI score (Fig. 6b)", "setting": "DSS-induced colitis mice; day 2, 5 mg/kg", "value": "2 and 0 (5×) and 1 (2×)"},
      {"measurement": "Body weight (Fig. 6a)", "setting": "DSS-induced colitis mice; day 2, 5 mg/kg, in g (unit assumed)", "value": "21.8 and 22.8 and 22.4"},
      {"measurement": "DAI score (Fig. 6b)", "setting": "DSS-induced colitis mice; day 3, 5 mg/kg", "value": "0 (5×) and 2 (3×)"},
      {"measurement": "DAI score (Fig. 6b)", "setting": "DSS-induced colitis mice; day 4, 5 mg/kg", "value": "2 (4×) and 0 and 1 (2×) and 3"},
      {"measurement": "Body weight (Fig. 6a)", "setting": "DSS-induced colitis mice; day 4, 5 mg/kg, in g (unit assumed)", "value": "23.2 and 19.6 and 22.9 and 22.3 and 22.4 and 22 and 21.1 and 22.5"},
      {"measurement": "DAI score (Fig. 6b)", "setting": "DSS-induced colitis mice; day 5, 5 mg/kg", "value": "3 (2×) and 5 and 1 (3×) and 6 and 2"},
      {"measurement": "Body weight (Fig. 6a)", "setting": "DSS-induced colitis mice; day 5, 5 mg/kg, in g (unit assumed)", "value": "23 and 19.1 and 22 and 19.4 and 20.5 and 20.9 and 20.6 and 21.4"},
      {"measurement": "DAI score (Fig. 6b)", "setting": "DSS-induced colitis mice; day 6, 5 mg/kg", "value": "4 (2×) and 5 and 1 (2×) and 2 and 7 and 6"},
      {"measurement": "Body weight (Fig. 6a)", "setting": "DSS-induced colitis mice; day 6, 5 mg/kg, in g (unit assumed)", "value": "22.2 and 18.3 and 21.8 and 20.1 and 18.5 and 18.4 and 20.2 and 21.3"},
      {"measurement": "DAI score (Fig. 6b)", "setting": "DSS-induced colitis mice; day 7, 5 mg/kg", "value": "7 (3×) and 2 (2×) and 6 and 3 and 4"},
      {"measurement": "Body weight (Fig. 6a)", "setting": "DSS-induced colitis mice; day 7, 5 mg/kg, in g (unit assumed)", "value": "20.9 and 16.9 and 20.5 and 19.8 and 16.7 and 16.5 and 20.1 and 19.7"},
      {"measurement": "DAI score (Fig. 6b)", "setting": "DSS-induced colitis mice; day 8, 5 mg/kg", "value": "0 (3×) and 5 and 3 (2×) and 1 (2×)"},
      {"measurement": "Body weight (Fig. 6a)", "setting": "DSS-induced colitis mice; day 8, 5 mg/kg, in g (unit assumed)", "value": "20.9 and 15.8 and 22.3 and 21.2 and 16.4 and 21.3 and 21.8"},
      {"measurement": "DAI score (Fig. 6b)", "setting": "DSS-induced colitis mice; day 9, 5 mg/kg", "value": "1 and 0 (5×) and 2"},
      {"measurement": "Body weight (Fig. 6a)", "setting": "DSS-induced colitis mice; day 9, 5 mg/kg, in g (unit assumed)", "value": "20.2 and 15.8 and 22.7 and 22.9 and 16.5 and 21.9 and 22"},
      {"measurement": "DAI score (Fig. 6b)", "setting": "DSS-induced colitis mice; day 10, 5 mg/kg", "value": "1 (4×) and 2 (3×)"},
      {"measurement": "Body weight (Fig. 6a)", "setting": "DSS-induced colitis mice; day 10, 5 mg/kg, in g (unit assumed)", "value": "19.5 and 15.3 and 22.2 and 22.8 and 16.1 and 21.9 and 22.6"},
      {"measurement": "DAI score (Fig. 6b)", "setting": "DSS-induced colitis mice; day 11", "value": 0},
      {"measurement": "Body weight (Fig. 6a)", "setting": "DSS-induced colitis mice; day 11, 5 mg/kg", "value": "20.1 and 15.7 and 22 (2×) and 22.9 and 16.7 and 22.8"}
    ]}
  ]
}
